According to US9079913B2, “Spiro-oxindole MDM2 antagonists” (The Regents of the University of Michigan, priority 2009, dated 2015):
Where two headings read alike, the source gives them in different places.

Columns and labels:
[1] = Pharmacokinetic studies in rats; assay type: in vivo, rat
Experimental: Pharmacokinetic studies on MDM2 inhibitors were carried out in rat. For comparison, the MDM2 inhibitor, AT-219, was also studied.

[2] = system: Isogenic HCT-116 colon cancer cell lines; test: cells; assay type: cell-based; settings: cell growth;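 also: cells grown in 96-well plates in McCoy's 5A medium with 10% FBS, exposed to compound for 4 days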
Experimental: Cells were seeded in 96-well flat bottom cell culture plates at a density of 2−3×10^3 cells/well with compounds and incubated for 4 days.

[3] = molecular target: recombinant human His-tagged MDM2 protein (residues 1-118) (Homo sapiens (Human), UniProt Q00987); test: Fluorescence-polarization MDM2 binding assay; settings: for IC50: Table 19A, FP binding assay, read-out: MDM2 IC50;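 as to all read-outs here: fluorescence polarization read after three hours of incubation in potassium phosphate buffer containing bovine gamma globulin and Triton X-100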
Chain of recombinant human His-tagged MDM2 protein (residues 1-118) (Q00987 1-118): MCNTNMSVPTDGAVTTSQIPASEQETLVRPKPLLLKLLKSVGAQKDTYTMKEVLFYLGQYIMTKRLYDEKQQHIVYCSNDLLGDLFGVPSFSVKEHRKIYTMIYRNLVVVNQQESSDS

[4] = system: cancer cell lines with wild-type p53 / mutated or deleted p53 (ATCC); test: Cell growth assay (WST-8), other cancer cell lines; assay type: cell-based
[5] = In vitro microsomal stability, human; assay type: in vitro ADME; settings: for Microsomal stability, % remaining: Human Microsome, same batch
[6] = In vitro microsomal stability, rat; assay type: in vitro ADME; settings: for microsomal stability (in words) / % of compound remaining when incubated in rat liver microsomes with NADPH: rat liver microsomes; for Microsomal stability, % remaining: Rat Microsome, same batch
[7] = Homo sapiens, HCT-116, read-out: HCT-116 (p53 wild-type) IC50, Table 19A, HCT-116 p53 wild-type
[8] = Homo sapiens, LNCaP, Table 19A, LNCAP cells, p53 wild-type, cell growth, read-out: LNCAP (p53 wild-type) IC50
[9] = rat, plasma, male rats, oral dose 15 mg/kg

CC(C)(C)C[C@H]1N[C@@H](C(=O)NC2CCC(NS(C)(=O)=O)CC2)[C@H](c2cccc(Cl)c2F)[C@@]12C(=O)Nc1cc(Cl)ccc12 (stereo partly shown) [MI-771]
CLz ([1]; rat, IV, 5 mg/kg, plasma, parent compound): 36.7 mL/min/kg | Vd ([1]; rat, plasma, iv, 5 mg/kg, rat, IV, 5 mg/kg, plasma, parent compound, read-out: Vz): 7.1 L/kg | pharmacokinetic profile (in words) ([1]; rats, intravenous and oral routes of dosing): very poor pharmacokinetic profile | IC50 [2, 7]: 1000 ± 300 nM | IC50 ([2]; read-out: HCT-116 (p53-/-) IC50, Table 19A, HCT-116 p53-/-): 12000 ± 1100 nM | IC50 [3]: < 1000 nM | binding to MDM2 (in words) ([3]; human MDM2 protein): high affinities | IC50 [4, 8]: 1100 ± 100 nM | IC50 ([4]; Homo sapiens, SJSA-1, Table 19A, SJSA-1 cells, p53 wild-type, cell growth, read-out: SJSA-1 (p53 wild-type) IC50): 1200 ± 300 nM | IC50 ([4]; Table 19A, PC-3 cells, deleted p53, cell growth, read-out: PC-3 (deleted p53) IC50): 13700 ± 4400 nM | cell growth inhibition (in words) ([4]; cancer cell lines with wild-type p53): effectively inhibit cell growth | microsomal stability (in words) ([5]; human liver microsomes): very poor microsomal stability | t1/2 ([5]; human liver microsomes with NADPH): 3.12 min | % of compound remaining when incubated in human liver microsomes with NADPH ([5]; human liver microsomes, 0 min): 100.00% | % of compound remaining when incubated in human liver microsomes with NADPH ([5]; human liver microsomes, 5 min): 27.98% | % of compound remaining when incubated in human liver microsomes with NADPH ([5]; human liver microsomes, 10 min): 10.82% | % of compound remaining when incubated in human liver microsomes with NADPH ([5]; human liver microsomes, 15 min): 4.30% | % of compound remaining when incubated in human liver microsomes with NADPH ([5]; human liver microsomes, 30 min): 0.82% | % of compound remaining when incubated in human liver microsomes with NADPH ([5]; human liver microsomes, 45 min): 0.00% | % of compound remaining when incubated in human liver microsomes with NADPH ([5]; human liver microsomes, 60 min): 0.00% | microsomal stability (in words) [6]: very poor microsomal stability | t1/2 ([6]; rat liver microsomes with NADPH): 2.69 min | % of compound remaining when incubated in rat liver microsomes with NADPH ([6]; 0 min): 100.00% | % of compound remaining when incubated in rat liver microsomes with NADPH ([6]; 5 min): 20.48% | % of compound remaining when incubated in rat liver microsomes with NADPH ([6]; 10 min): 7.59% | % of compound remaining when incubated in rat liver microsomes with NADPH ([6]; 15 min): 3.57% | % of compound remaining when incubated in rat liver microsomes with NADPH ([6]; 30 min): 1.22% | % of compound remaining when incubated in rat liver microsomes with NADPH ([6]; 45 min): 0.66% | % of compound remaining when incubated in rat liver microsomes with NADPH ([6]; 60 min): 0.46%

CC(C)(C)C[C@H]1N[C@@H](C(=O)NCC[C@H](O)CNC(C)(C)C)[C@H](c2cccc(Cl)c2)[C@@]12C(=O)Nc1cc(Cl)c(F)cc12 [MI-519-24]
oral bioavailability / oral pharmacokinetics in rats (in words) ([1]; oral dosing, rats): much inferior oral pharmacokinetic parameters | bioavailability [1, 9]: 1.1% | half-life [1, 9]: 192 ± 84 min | AUC(0-t) ([1]; rat, plasma, male rats, oral dose 15 mg/kg, read-out: AUC(0-t)): 101 ± 62 µg·h/mL | Cmax ([1]; rat, plasma, male rats, oral dose 15 mg/kg, read-out: Cmax): 35 ± 23 ng/mL | IC50 ([2]; Homo sapiens, HCT-116, read-out: HCT-116 (p53-/-) IC50, Table 19A, HCT-116 p53-/-): 6500 ± 700 nM | IC50 [2, 7]: < 2000 nM | IC50 [3]: < 2000 nM | IC50 [4, 8]: < 3000 nM | IC50 ([4]; Homo sapiens, PC-3, Table 19A, PC-3 cells, deleted p53, cell growth, read-out: PC-3 (deleted p53) IC50): 3700 ± 200 nM | Microsomal stability, % remaining ([5]; 0 min): 100.00% | Microsomal stability, % remaining ([5]; 5 min): 57.08% | Microsomal stability, % remaining ([5]; 10 min): 53.92% | Microsomal stability, % remaining ([5]; 15 min): 49.62% | Microsomal stability, % remaining ([5]; 30 min): 47.41% | Microsomal stability, % remaining ([5]; 45 min): 41.18% | Microsomal stability, % remaining ([5]; 60 min): 41.42% | % of compound remaining when incubated in human liver microsomes with NADPH ([5]; human liver microsomes, 0 min): 100.00% | % of compound remaining when incubated in human liver microsomes with NADPH ([5]; human liver microsomes, 5 min): 57.08% | % of compound remaining when incubated in human liver microsomes with NADPH ([5]; human liver microsomes, 10 min): 53.92% | % of compound remaining when incubated in human liver microsomes with NADPH ([5]; human liver microsomes, 15 min): 49.62% | % of compound remaining when incubated in human liver microsomes with NADPH ([5]; human liver microsomes, 30 min): 47.41% | % of compound remaining when incubated in human liver microsomes with NADPH ([5]; human liver microsomes, 45 min): 41.18% | % of compound remaining when incubated in human liver microsomes with NADPH ([5]; human liver microsomes, 60 min): 41.42% | half-life ([5]; human, liver microsomes, human liver microsomes with NADPH): 11.2 min | Microsomal stability, % remaining ([6]; 0 min): 100.00% | Microsomal stability, % remaining ([6]; 5 min): 102.16% | Microsomal stability, % remaining ([6]; 10 min): 86.33% | Microsomal stability, % remaining ([6]; 15 min): 75.72% | Microsomal stability, % remaining ([6]; 30 min): 68.24% | Microsomal stability, % remaining ([6]; 45 min): 66.08% | Microsomal stability, % remaining ([6]; 60 min): 61.51% | microsomal stability (in words) [6]: improved stability over MI-219 | % of compound remaining when incubated in rat liver microsomes with NADPH ([6]; 0 min): 100.00% | % of compound remaining when incubated in rat liver microsomes with NADPH ([6]; 5 min): 102.16% | % of compound remaining when incubated in rat liver microsomes with NADPH ([6]; 10 min): 86.33% | % of compound remaining when incubated in rat liver microsomes with NADPH ([6]; 15 min): 75.72% | % of compound remaining when incubated in rat liver microsomes with NADPH ([6]; 30 min): 68.24% | % of compound remaining when incubated in rat liver microsomes with NADPH ([6]; 45 min): 66.08% | % of compound remaining when incubated in rat liver microsomes with NADPH ([6]; 60 min): 61.51% | half-life ([6]; rat, liver microsomes, rat liver microsomes with NADPH): 48.5 min
